{
  "source": "patent US20220177511A1",
  "about": "“SERIES OF HALOGENATED TETRACYCLIC TRITERPENE DERIVATIVES AND THEIR PREPARATION AND APPLICATION” (SHANGHAI KING-X BIOTECH CO., LTD, priority 2019, published 2022)",
  "key": {"C57 mouse CHF model": {"system": "C57 mouse CHF model", "experiment": "In vivo efficacy on chronic heart failure in mice (coronary artery ligation, echocardiography), enalapril control", "conditions": "for Cardiac output per minute (CO), day 28 vs day 0: p<0.01 or p<0.05 (FIG. 6)", "procedure": "C57 mouse coronary artery ligation method was used in this experiment to prepare the mouse CHF model. The differences in echocardiography, hemodynamics and histopathology of the model were observed after administration. Test substance: compound 2. Solvent: 0.3% sodium carboxymethyl cellulose. Dosage: 1 mg/kg, 3 mg/kg, 10 mg/kg, 30 mg/kg and 100 mg/kg. Route of administration: intragastric. Control drug: enalapril 2 mg/kg. Strain: C57 mouse; Age: 7 weeks; Weight: 18-20 g; Gender: Male; Grade: SPF C57 mouse CHF model was established by coronary artery ligation method in this experiment. The differences in echocardiography, hemodynamics and histopathology of the model were observed after administration. 5 dose groups were set for compound 2 in this experiment. Enalapril was selected as the positive control. Once daily for 28 consecutive days. The doses for each group was 1 mg/kg, 3 mg/kg, 10 mg/kg, 30 mg/kg and 100 mg/kg. Positive control group: Enalapril (2 mg/kg) was administered after CHF was established. The mice were anesthetized in a box filled with isoflurane. After the mice were anesthetized, the left 4th intercostal space was opened to expose the left atrial appendage and left ventricle. It can be seen that the left coronary artery runs downward from the middle of the left atrial appendage to the anterior wall of the left ventricle. The coronary artery is sutured at a high position about 1 mm from the lower border of the left atrial appendage. After ligation, the myocardium gradually changes from fleshy red to pale white, indicating myocardial infarction. The model is successfully established, and the chest is closed layer by layer. After the spontaneous breathing of the mice recovered, the mice were caged and reared in a day-night cycle with free access to water and food. After being reared for 30 days, the chronic heart failure model was detected by echocardiography, and the mice with successful chronic heart failure model were selected. Qualified CHF mice screened by echocardiography were randomly grouped. Mice were given compound 2 by intragastric administration once daily for 28 consecutive days. The body weight of mice was measured every week, and echocardiography was performed after 28 days of administration. After the […] anesthetized, 1 mm^3 tissue was taken from the hearts of 3 mice in each group, fixed with electron microscope fixative, and detected by transmission electron microscope to observe the ultrastructure of the heart. All remaining heart tissues were fixed with 10% formaldehyde, and stained with HE for histopathology to observe histopathological changes."}, "[1]": {"system": "chronic heart failure mice", "experiment": "Pharmacodynamic comparison of LCZ696 and compound 2 in chronic heart failure mice (echocardiography)", "format": "in vivo", "conditions": "for CO / EF / FS / HR: Compound 2 group; for EF, day 28 vs day 0 (words) / short-axis shortening rate (FS %), day 28 vs day 0 (words): chronic heart failure mice, p<0.0005 (FIG. 8)", "description": "With EF<50%, chronic heart failure mice were selected.\nThe mice were detected by cardiac ultrasound after 28 days of administration."}, "[2]": {"experiment": "Solubility test in water and FaSSIF", "format": "physicochemical", "conditions": "thermodynamic from solid, 37° C., up to 24 hours, read-out: Solubility"}, "[3]": {"conditions": "mice with heart failure, intragastric once daily 28 days, dose not stated"}, "[4]": {"conditions": "chronic heart failure mice (FIG. 9)"}},
  "note": "Entries after “also recorded” stand apart in the source; their conditions may differ. Read-outs that look alike come from different tables or passages of the source.",
  "data": [
    {"smiles": "CC(C)(O)[C@@H]1CC[C@](C)([C@H]2[C@@H](O)C[C@@]3(C)[C@@H]4C[C@H](O)[C@H]5C(C)(C)C(F)(F)CC[C@@]56C[C@@]46CC[C@]23C)O1", "note": "[Compound 2, (2aR,3R,4S,5aS,5bS,7S,7aR,11aR,12aS)-9,9-difluoro-3-((2R,5S)-5-(2-hydroxypropan-2-yl)-2-methyltetrahydrofuran-2-yl)-2a,5a,8,8-tetramethyltetradecahydro-1H,12H-cyclopenta[a]cyclopropa[e]phenanthrene-4,7-diol]", "values": [
      {"measurement": "Short axis shortening rate (FS %), day 28 vs day 0", "setting": "C57 mouse CHF model; 10 mg/kg group, p<0.0005 (FIG. 7)", "value": "significant increase; also recorded: significant elevated"},
      {"measurement": "EF value, day 28 vs day 0", "setting": "C57 mouse CHF model; 10 mg/kg group, p<0.0005, highest increase p<0.0001 (FIG. 5)", "value": "significantly increased"},
      {"measurement": "Cardiac output per minute (CO), day 28 vs day 0", "setting": "C57 mouse CHF model; 10 mg/kg group", "value": "significantly increased"},
      {"measurement": "EF value, day 28 vs day 0", "setting": "C57 mouse CHF model; 30 mg/kg group, p<0.0005 (FIG. 5)", "value": "significantly increased"},
      {"measurement": "Cardiac output per minute (CO), day 28 vs day 0", "setting": "C57 mouse CHF model; 30 mg/kg group", "value": "significantly increased"},
      {"measurement": "Cardiac output per minute (CO), day 28 vs day 0", "setting": "C57 mouse CHF model; 100 mg/kg group", "value": "significantly increased"},
      {"measurement": "CO per minute", "setting": "C57 mouse CHF model; [3]", "value": "significantly increased"},
      {"measurement": "ejection fraction (EF)", "setting": "C57 mouse CHF model; [3]", "value": "significantly increased"},
      {"measurement": "heart rate (HR)", "setting": "C57 mouse CHF model; [3]", "value": "without increasing"},
      {"measurement": "short-axis shortening rate (FS)", "setting": "C57 mouse CHF model; [3]", "value": "significantly increased"},
      {"measurement": "CO", "setting": "[1]; Day 0", "value": "33.39 ± 2.45", "unit": "mL/min"},
      {"measurement": "EF", "setting": "[1]; Day 0", "value": "25.04 ± 1.87", "unit": "%"},
      {"measurement": "FS", "setting": "[1]; Day 0", "value": "9.65 ± 0.84", "unit": "%"},
      {"measurement": "HR", "setting": "[1]; Day 0", "value": "564.5 ± 14.96", "unit": "times/min"},
      {"measurement": "CO", "setting": "[1]; Day 28", "value": "48.09 ± 3.69", "unit": "mL/min"},
      {"measurement": "EF", "setting": "[1]; Day 28", "value": "43.83 ± 3.62", "unit": "%"},
      {"measurement": "FS", "setting": "[1]; Day 28", "value": "18.86 ± 2.17", "unit": "%"},
      {"measurement": "HR", "setting": "[1]; Day 28", "value": "579.3 ± 12.44", "unit": "times/min"},
      {"measurement": "Cardiac output per minute (CO), day 28 vs day 0 (words)", "setting": "[1]; [4]", "value": "significantly improved"},
      {"measurement": "Heart rate (HR), day 28 vs day 0", "setting": "[1]; [4]", "value": "no significant change"},
      {"measurement": "Cardiac output per minute (CO), day 28 vs day 0 (words)", "setting": "[1]; chronic heart failure mice (FIG. 9), listed as compound 2", "value": "increased significantly"},
      {"measurement": "EF, day 28 vs day 0 (words)", "setting": "[1]", "value": "significantly improved"},
      {"measurement": "short-axis shortening rate (FS %), day 28 vs day 0 (words)", "setting": "[1]", "value": "significantly improved"},
      {"measurement": "EF, day 28 vs day 0 (words)", "setting": "[1]; listed as compound 2", "value": "significantly increased"},
      {"measurement": "short-axis shortening rate (FS %), day 28 vs day 0 (words)", "setting": "[1]; listed as compound 2", "value": "more significant"},
      {"measurement": "left ventricular ejection fraction EF % increased by", "setting": "[1]; compound 2 group, after 28 days of administration", "value": 75.04, "unit": "%"},
      {"measurement": "Solubility", "setting": "[2]; FaSSIF (pH 6.5)", "value": 15, "unit": "µg/mL"},
      {"measurement": "Solubility", "setting": "[2]; Water", "value": 2, "unit": "µg/mL"}
    ]}
  ]
}
